# Measured values taken from ChEMBL document CHEMBL5380843 (J Med Chem, 2023).
# Tests used:
# [1] = Resistant factor, ratio of EC50 for antiviral activity against HIV-1 IIIB harboring reverse transcriptase E138K mutant to EC50 for antiviral activity against wild type HIV-1 IIIB; type: functional
# [2] = Acute toxicity in 12 hr fasted female CD-1 (ICR) mouse assessed as death at 2 g/Kg, IG measured after 14 days; conditions: in vivo, po, 2000 mg/kg, 336 h, time 14 day
# [3] = test system: Human immunodeficiency virus 1; assay: Antiviral activity against wild type HIV-1 IIIB infected in human MT4 cells assessed as protection against virus-induced cytopathic effect incubated for 5 days by MTT assay; type: functional, organism-based; conditions: Human immunodeficiency virus 1, IIIB, MT4, 120 h
# [4] = Cytotoxicity against human MT4 cells assessed as reduction in cell viability incubated for 5 days by MTT assay; type: toxicity, cell-based; conditions: time 5 day
# [5] = test system: Human immunodeficiency virus 1; assay: Antiviral activity against wild type HIV-1 IIIB harboring reverse transcriptase E138K mutant infected in human MT4 cells assessed as protection against virus-induced cytopathic effect incubated for 5 days by MTT assay; type: functional, organism-based; conditions: Human immunodeficiency virus 1, IIIB, MT4, 120 h
# [6] = Resistant factor, ratio of EC50 for antiviral activity against HIV-1 IIIB harboring reverse transcriptase Y181C mutant to EC50 for antiviral activity against wild type HIV-1 IIIB; type: functional
# [7] = test system: Human immunodeficiency virus 1; assay: Antiviral activity against wild type HIV-1 IIIB harboring reverse transcriptase […] mutant infected in human MT4 cells assessed as protection against virus-induced cytopathic effect incubated for 5 days by MTT assay; type: functional, organism-based; conditions: Human immunodeficiency virus 1, IIIB, MT4, 120 h
# [8] = Tmax in Sprague-Dawley rat at 1 mg/kg, iv measured upto 24 hrs by LC-MS/MS analysis; type: ADME, organism-based; conditions: in vivo
# [9] = AUC (0 to t) in Sprague-Dawley rat at 1 mg/kg, iv measured upto 24 hrs by LC-MS/MS analysis; type: ADME, organism-based; design: time < 24 hrs, dose 1 mg/kg, route iv; conditions: in vivo
# [10] = Acute toxicity in 12 hr fasted male CD-1(ICR) mouse assessed as pathological damage in brain at 2 g/Kg, IG measured after 14 days by H and E staining based analysis; type: tissue-based; conditions: in vivo, po, 2000 mg/kg, 336 h, time 14 day
# [11] = target: Voltage-gated inwardly rectifying potassium channel KCNH2 (Homo sapiens, UniProt Q12809); assay: Inhibition of hERG expressed in CHO cells by Qpatch assay; type: toxicity, cell-based
# Voltage-gated inwardly rectifying potassium channel KCNH2, sequence (Q12809 whole entry): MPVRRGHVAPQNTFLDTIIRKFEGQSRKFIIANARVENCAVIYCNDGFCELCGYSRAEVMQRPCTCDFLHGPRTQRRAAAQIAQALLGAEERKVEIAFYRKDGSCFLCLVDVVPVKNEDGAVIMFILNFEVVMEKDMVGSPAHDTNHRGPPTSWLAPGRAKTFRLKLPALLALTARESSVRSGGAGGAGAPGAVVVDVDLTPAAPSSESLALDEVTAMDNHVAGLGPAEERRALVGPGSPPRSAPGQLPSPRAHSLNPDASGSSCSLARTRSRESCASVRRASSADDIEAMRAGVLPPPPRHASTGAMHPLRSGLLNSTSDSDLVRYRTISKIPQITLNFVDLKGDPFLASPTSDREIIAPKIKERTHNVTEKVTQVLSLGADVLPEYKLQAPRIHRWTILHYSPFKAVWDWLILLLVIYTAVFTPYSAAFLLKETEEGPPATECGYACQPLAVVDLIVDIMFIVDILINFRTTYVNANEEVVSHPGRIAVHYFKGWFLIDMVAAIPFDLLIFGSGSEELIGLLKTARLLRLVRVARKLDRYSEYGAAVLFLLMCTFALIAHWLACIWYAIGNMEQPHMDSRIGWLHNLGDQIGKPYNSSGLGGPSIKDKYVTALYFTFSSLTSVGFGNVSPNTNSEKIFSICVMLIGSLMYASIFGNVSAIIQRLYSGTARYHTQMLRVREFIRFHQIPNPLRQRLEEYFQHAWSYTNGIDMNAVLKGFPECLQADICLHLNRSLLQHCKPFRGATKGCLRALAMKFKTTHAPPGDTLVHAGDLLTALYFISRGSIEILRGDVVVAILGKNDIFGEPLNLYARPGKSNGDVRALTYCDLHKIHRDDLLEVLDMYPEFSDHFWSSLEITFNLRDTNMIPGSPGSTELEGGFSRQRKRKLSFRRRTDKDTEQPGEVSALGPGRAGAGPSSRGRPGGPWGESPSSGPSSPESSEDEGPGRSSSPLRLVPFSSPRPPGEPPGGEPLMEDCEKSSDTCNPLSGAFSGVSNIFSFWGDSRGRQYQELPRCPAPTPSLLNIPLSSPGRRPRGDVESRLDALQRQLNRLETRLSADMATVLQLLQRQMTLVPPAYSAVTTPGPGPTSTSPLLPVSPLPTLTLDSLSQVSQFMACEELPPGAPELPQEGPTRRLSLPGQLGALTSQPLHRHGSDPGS
# [12] = Acute toxicity in 12 hr fasted male CD-1 (ICR) mouse assessed as death at 2 g/Kg, IG measured after 14 days; conditions: in vivo, po, 2000 mg/kg, 336 h, time 14 day
# [13] = Resistant factor, ratio of EC50 for antiviral activity against HIV-1 IIIB harboring reverse transcriptase Y188L mutant to EC50 for antiviral activity against wild type HIV-1 IIIB; type: functional
# [14] = AUC (0 to infinity) in Sprague-Dawley rat at 1 mg/kg, iv measured upto 24 hrs by LC-MS/MS analysis; type: ADME, organism-based; design: time < 24 hrs, dose 1 mg/kg, route iv; conditions: in vivo
# Cytochrome P450 2D6 = Cytochrome P450 2D6 (Homo sapiens, UniProt P10635); assay: Inhibition of CYP2D6 in human liver microsomes using dextromethorphan as substrate incubated for 15 to 45 mins in presence of NADPH; type: ADME, Microsome
# Cytochrome P450 2D6, sequence (P10635 whole entry): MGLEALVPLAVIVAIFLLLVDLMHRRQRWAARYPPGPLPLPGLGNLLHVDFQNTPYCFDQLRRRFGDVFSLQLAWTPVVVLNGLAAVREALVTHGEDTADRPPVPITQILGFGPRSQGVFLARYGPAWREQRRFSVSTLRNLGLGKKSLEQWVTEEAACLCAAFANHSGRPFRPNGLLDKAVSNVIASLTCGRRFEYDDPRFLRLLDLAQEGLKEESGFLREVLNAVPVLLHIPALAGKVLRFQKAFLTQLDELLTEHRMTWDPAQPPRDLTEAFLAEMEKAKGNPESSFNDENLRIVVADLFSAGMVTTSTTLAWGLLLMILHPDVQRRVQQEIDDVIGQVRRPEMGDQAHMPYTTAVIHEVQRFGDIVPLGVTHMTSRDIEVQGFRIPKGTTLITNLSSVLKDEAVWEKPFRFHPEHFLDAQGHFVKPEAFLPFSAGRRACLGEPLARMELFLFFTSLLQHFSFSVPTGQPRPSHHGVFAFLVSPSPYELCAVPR
# Cytochrome P450 3A4 [15] = target: T1, Cytochrome P450 3A4 (Homo sapiens, UniProt P08684); assay: Inhibition of CYP3A4 in human liver microsomes using midazolam as substrate incubated for 15 to 45 mins in presence of NADPH; type: ADME, Microsome
# T1 sequence (P08684 whole entry): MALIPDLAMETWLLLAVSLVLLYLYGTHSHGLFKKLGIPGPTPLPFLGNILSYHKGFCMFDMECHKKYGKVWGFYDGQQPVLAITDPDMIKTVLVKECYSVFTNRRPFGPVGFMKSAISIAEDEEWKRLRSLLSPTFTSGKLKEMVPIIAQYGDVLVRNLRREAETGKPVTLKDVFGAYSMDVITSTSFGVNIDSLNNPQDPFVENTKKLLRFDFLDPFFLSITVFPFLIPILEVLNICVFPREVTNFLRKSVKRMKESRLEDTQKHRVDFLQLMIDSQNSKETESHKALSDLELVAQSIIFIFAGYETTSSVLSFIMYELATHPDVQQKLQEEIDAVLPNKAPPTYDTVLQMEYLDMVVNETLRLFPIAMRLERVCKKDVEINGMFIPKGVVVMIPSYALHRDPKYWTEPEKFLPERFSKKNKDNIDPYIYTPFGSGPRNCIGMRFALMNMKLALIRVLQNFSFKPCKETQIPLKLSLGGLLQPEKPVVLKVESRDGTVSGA
# [16] = Acute toxicity in 12 hr fasted male CD-1(ICR) mouse assessed as pathological damage in heart at 2 g/Kg, IG measured after 14 days by H and E staining based analysis; type: tissue-based; conditions: in vivo, po, 2000 mg/kg, 336 h, time 14 day
# [17] = Acute toxicity in 12 hr fasted female CD-1(ICR) mouse assessed as pathological damage in spleen at 2 g/Kg, IG measured after 14 days by H and E staining based analysis; type: tissue-based; conditions: in vivo, po, 2000 mg/kg, 336 h, time 14 day
# [18] = Acute toxicity in 12 hr fasted male CD-1(ICR) mouse assessed as pathological damage in kidney at 2 g/Kg, IG measured after 14 days by H and E staining based analysis; type: tissue-based; conditions: in vivo, po, 2000 mg/kg, 336 h, time 14 day
# [19] = MRT (0 to infinity) in Sprague-Dawley rat at 1 mg/kg, iv measured upto 24 hrs by LC-MS/MS analysis; type: ADME, organism-based; conditions: in vivo
# [20] = Acute toxicity in 12 hr fasted male CD-1(ICR) mouse assessed as pathological damage in liver at 2 g/Kg, IG measured after 14 days by H and E staining based analysis; type: tissue-based; conditions: in vivo, po, 2000 mg/kg, 336 h, time 14 day
# Cytochrome P450 3A4 [21] = target: T1, Cytochrome P450 3A4; assay: Inhibition of CYP3A4 in human liver microsomes using testosterone as substrate incubated for 15 to 45 mins in presence of NADPH; type: ADME, Microsome
# [22] = AUC (0 to t) in Sprague-Dawley rat at 10 mg/kg, po measured upto 24 hrs by LC-MS/MS analysis; type: ADME, organism-based; design: dose 10 mg/kg, time < 24 hrs, route po; conditions: in vivo
# [23] = Acute toxicity in 12 hr fasted female CD-1(ICR) mouse assessed as pathological damage in liver at 2 g/Kg, IG measured after 14 days by H and E staining based analysis; type: tissue-based; conditions: in vivo, po, 2000 mg/kg, 336 h, time 14 day
# [24] = Acute toxicity in 12 hr fasted female CD-1(ICR) mouse assessed as pathological damage in kidney at 2 g/Kg, IG measured after 14 days by H and E staining based analysis; type: tissue-based; conditions: in vivo, po, 2000 mg/kg, 336 h, time 14 day
# [25] = Resistant factor, ratio of EC50 for antiviral activity against HIV-1 IIIB harboring reverse transcriptase K103N mutant to EC50 for antiviral activity against wild type HIV-1 IIIB; type: functional
# [26] = Selectivity index, ratio of CC50 for cytotoxicity against human MT4 cells to EC50 for antiviral activity against wild type HIV-1 IIIB infected in human MT4 cells; type: toxicity, cell-based; conditions: read-out: Ratio CC50/EC50
# [27] = target: Human immunodeficiency virus type 1 reverse transcriptase (Human immunodeficiency virus 1, UniProt Q72547); assay: Inhibition of recombinant wild type HIV-1 reverse transcriptase using DNA/RNA as substrate incubated for 40 mins by Pico-green dye based spectrofluorometric analysis
# [28] = Acute toxicity in 12 hr fasted female CD-1(ICR) mouse assessed as changes in body weight at 2 g/Kg, IG measured after 14 days; conditions: in vivo, po, 2000 mg/kg, 336 h, time 14 day
# [29] = Tmax in Sprague-Dawley rat at 10 mg/kg, po measured upto 24 hrs by LC-MS/MS analysis; type: ADME, organism-based; conditions: in vivo
# Cytochrome P450 1A2 = target: T2, Cytochrome P450 1A2 (Homo sapiens, UniProt P05177); assay: Inhibition of CYP1A2 in human liver microsomes using phenacetin as substrate incubated for 15 to 45 mins in presence of NADPH; type: ADME, Microsome
# T2 sequence (P05177 whole entry): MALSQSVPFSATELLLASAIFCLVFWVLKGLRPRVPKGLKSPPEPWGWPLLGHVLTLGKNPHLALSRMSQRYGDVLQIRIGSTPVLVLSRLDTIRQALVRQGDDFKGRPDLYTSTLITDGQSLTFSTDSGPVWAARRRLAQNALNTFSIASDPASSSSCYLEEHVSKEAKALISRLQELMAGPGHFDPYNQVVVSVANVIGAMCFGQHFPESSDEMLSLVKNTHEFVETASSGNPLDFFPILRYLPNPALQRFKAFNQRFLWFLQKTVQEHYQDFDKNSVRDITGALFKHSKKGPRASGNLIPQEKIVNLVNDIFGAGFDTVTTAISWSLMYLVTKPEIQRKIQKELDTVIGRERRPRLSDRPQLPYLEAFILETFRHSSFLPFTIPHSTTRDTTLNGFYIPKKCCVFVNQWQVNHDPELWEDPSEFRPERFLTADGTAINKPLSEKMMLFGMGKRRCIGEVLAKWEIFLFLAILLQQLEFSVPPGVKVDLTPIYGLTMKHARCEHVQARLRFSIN
smiles,measurement,setting,value
CONC(=O)c1cnc(Nc2ccc(C#N)cc2)nc1Oc1c(C)cc(-c2ccc(C#N)cc2)cc1C,Ratio EC50,[1],2.6
same,Activity,[2],Non-Toxic
same,EC50,[3],0.002 µM
same,CC50 at 120 h,[4],> 40.8 µM
same,EC50,[5],0.006 µM
same,Ratio EC50,[6],13
same,EC50,[7],0.013 µM
same,Tmax,[8],4.98 min
same,AUC(0-t) at 24 h,[9],1160 ng·h/mL
same,Activity,[10],Non-Toxic
same,IC50,[11],> 40 µM
same,Activity,[12],Non-Toxic
same,Ratio EC50,[13],23
same,AUC(0-inf),[14],1170 ng·h/mL
same,IC50,Cytochrome P450 2D6,> 50 µM
same,IC50,Cytochrome P450 3A4 [15],> 50 µM
same,Activity,[16],Non-Toxic
same,Activity,[17],Non-Toxic
same,Activity,[18],Non-Toxic
same,MRT inf,[19],3.75 h
same,Activity,[20],Non-Toxic
same,IC50,Cytochrome P450 3A4 [21],> 50 µM
same,AUC(0-t) at 24 h,[22],3570 ng·h/mL
same,Activity,[23],Non-Toxic
same,Activity,[24],Non-Toxic
same,Ratio EC50,[25],3.5
same,selectivity ratio,[26],> 17400
same,IC50,[27],0.047 µM
same,Activity,[28],Non-Toxic
same,Tmax,[29],2 h
same,IC50,Cytochrome P450 1A2,> 50 µM
